Assay type in all cases: biochemical, human
Assay [1] has as its system PCT. Briefly: Complementary activity of small subunits mutated at conserved positions, Furimazine substrate (Example 6). The settings on record: MBP-PCT 3.3 ng/ml, supernatant; for activity (luminescence signal value), 3 min: 3 min after Furimazine 25 µM; for activity (luminescence signal value), 6 min: 6 min after Furimazine 25 µM. The method, then: Detection Methods: • (1) The concentration of large subunit-rSCFV5 fusion protein was diluted to 12.5 nM, and 15 µl was added per well; • (2) MBP-PCT fusion protein was diluted to 3.3 ng/ml with PBSAD, and 10 µl was added per well; • (3) HB2151 strain containing plasmids with different small subunit sequences were induced by IPTG at 30°C overnight, then treated with polymyxin B for 1.5h, and centrifuged to collect the supernatant, and 2.5µl supernatant was added per well; • (4) The above three components were slightly mixed, incubated at 37°C for 7 min, and Obuffer 6.37-3 containing Furimazine at a concentration of 25 µM was added, […], the luminescence signal value was detected using a bioluminescence detector; and • (5) Clones with RLU higher than 10,000 were picked. The substrate was replaced with CTZ-h substrate for retesting (Obuffer 6.37-3 containing CTZ-h at a concentration of 25 µM was added, and after 60 s, the luminescence signal value was detected using a bioluminescence detector), and a PBSAD control was added to test the signal-to-noise ratio.
In order to further determine whether these three conserved amino acid sequences were changed, this example constructed a random mutation library of these three positions, with a theoretical diversity of 8,000 and a library capacity of 10^6, and 2,000 single clones were picked. The method of protein induction and expression was the same as that in Example 1. The complementary activity was tested in the same manner as that in Example 4, but the signal-to-noise ratio was not retested with CTZ-h. Clones with different activity were randomly picked for sequencing.

The test system of assay [2] is PCT. Briefly: Luciferase dual-antibody complementary activation assay for PCT detection, clone supernatants, retest with CTZ-h (Example 1). The settings on record: for Signal-to-noise ratio: RLU antigen+/RLU antigen-, MBP-PCT 3.3 ng/ml, CTZ-h; for PCT+: luminescence signal value with MBP-PCT 3.3 ng/ml, large subunit-rSCFV5 50 nM, supernatant; for PCT+ / PCT-: retest CTZ-h 25 µM, read after 60 s; for PCT-: luminescence signal value, background control PBSAD without PCT. Here is the method:
In order to improve the signal-to-noise ratio and complementary activity of the luciferase dual-antibody complementary activation assay, a series of complementary luciferase small subunits were prepared in this example. Large subunit-rSCFV5 fusion protein (SEQ ID NO: 87) was kept unchanged, and the small subunit sequence of the rSCFV18-small subunit P114 fusion protein (SEQ ID NO: 88) was modified by semi-randomization to prepare rSCFV18-small subunit mutant fusion proteins. Based on the sequence of small subunit P114, and with reference to the 3D structure of complementary luciferase, computer-aided sequence design was employed to generate a library with a theoretical diversity of 2.49*10^6. Primers were designed for PCR amplification using the plasmid pComb3x of rSCFV18-small subunit P114 fusion protein as a template. Subsequently, an expression vector library was constructed by means of restriction digestion and ligation (SfiI, NheI), and a semi-random amino acid mutation library was introduced into the small subunit position and transformed into HB2151 competent cells, yielding a library capacity of 7.6*10^9. The 100 plates were spread, and 9,500 single clones were picked and inoculated into 600 µL of 2YTA medium, followed by incubation at 37°C with shaking at 250 rpm for 2 h. When the bacterial density reached approximately OD600 = 0.6~1.0, IPTG was then added to a final concentration of 1 mM, and the culture was further incubated at 30°C with shaking at 250 rpm for 20 h. The next day, the bacteria were collected by centrifugation at 4°C, 4,500g for 10min. The supernatant was discarded, and the precipitate was resuspended with 200µl of PBS containing polymyxin B at a final concentration of 20,000 u/ml. The suspension was incubated at room temperature with shaking at 100rpm for 1h, and then centrifuged at 4500g for 10min, and the supernatant was used for the test.
Test Methods: • (1) The concentration of large subunit-rSCFV5 fusion protein was diluted to 50 nM, and 15 µl was added per well; • (2) MBP-PCT fusion protein was diluted to 3.3 ng/ml with PBSAD, and 15 µl was added per well. The background control was PBSAD, and 10 µl was added per well; • (3) HB2151 strain containing expression plasmids with different small subunit were induced by 1 mM of IPTG at 30°C overnight, then treated with polymyxin B for 1.5 h, and centrifuged to collect the supernatant, and 2.5 µl supernatant was added per well; • (4) The above three components were slightly mixed, incubated at 37°C for 7 min, and Obuffer 6.37-3 containing Furimazine at a concentration of 25 µM was added, and after 80 s, the luminescence signal value was detected using a bioluminescence detector; and • (5) Clones with RLU higher than 10,000 and a signal-to-noise ratio (RLU antigen+/RLU antigen-) higher than that of the rSCFV18-small subunit P114 fusion protein were selected for retesting. The substrate was replaced with CTZ-h for retesting. Obuffer 6.37-3 containing CTZ-h at a concentration of 25 µM was added, and after 60 s, the luminescence signal value was detected using a bioluminescence detector.

The subject of assay [3] is PCT. In words: Signal-to-noise ratio and linear range for PCT detection, purified fusion proteins (Example 3). Further details: key: luminescence normalized against the background value. The settings on record: PCT 3.3 (pg/ml); normalized against the background value.
The test system of assay [4] is PCT. Described as above. The settings on record: for Signal-to-noise ratio at 1000 pg/ml: large subunit 100 nM, small subunit fusion 180 nM, CTZ-h 25 µM, 140 s; for signal-to-noise ratios in luciferase dual-antibody complementary activation for PCT detection: statement in words on Table 3 and Figure 2. On the set-up: key to luminescence value: luminescence normalized against the background value. Here is the method: Test Methods: • (1) MBP-PCT protein was diluted with PBSAD in 10-fold gradient starting from 100 ng/ml, with 8 gradients in total, and 10 µl was added per well; • (2) The large subunit-SCFV5 fusion protein was diluted with PBSA to 100 nM, and 10 µl was added per well; • (3) Different rSCFV18-small subunit mutant fusion proteins were diluted with PBSA to 180 nM, and 10 µl of each was added per well; • (4) The plate was mixed slightly and incubated at 37°C for 10 min; and • (5) 50 µl of Obuffer 6.37-3 containing 25 µM of CTZ-h was added, and after 140 s, the luminescence value was detected. The results are shown after normalization against the background value.

Where [5] appears, read: PCT 100 (pg/ml), normalized against the background value.
[6] abbreviates: PCT 1000 (pg/ml), normalized against the background value.
[7] abbreviates: PCT 10000 (pg/ml), normalized against the background value.
Where [8] appears, read: PCT 100000 (pg/ml), normalized against the background value.

We go through 23 sequences from EP4700040A1, “PEPTIDE AND LUMINESCENT COMPLEX CONTAINING SAME” (Shenzhen Loggene Life Science & Technology Co., Ltd., priority 2023, dated 2024).

On to AEGYHLFRSKS [RD-108], for which, in the assay on PCT [1], the “activity (luminescence signal value), 3 min” value (“activity … 3 min” below) came out at 50 and the “activity (luminescence signal value), 6 min” value (from here on “activity … 6 min”) is given as 53.

As to AEGYRLFDRKS [RD-012], in the assay on PCT [1], the “activity … 3 min” value is 3586 and the “activity … 6 min” value turned out to be 2963.

Turning to AEGYRLFDRKS [RD-045], in the assay on PCT [1], the “activity … 3 min” value worked out at 2398 and the “activity … 6 min” value turned out to be 2087.

For AEGYRLFDRKS [RD-086], in the assay on PCT [1], the “activity … 3 min” value is given as 3394 and the “activity … 6 min” value worked out at 3222.

For AEPYRIFDRKS [RD-099], in the assay on PCT [1], the “activity … 3 min” value came to 221 and the “activity … 6 min” value is 52.

For AESYKLFDRKS [RD-100], in the assay with PCT [1], the “activity … 3 min” value is recorded as 44 and the “activity … 6 min” value is 214.

For IEGYRLFDRKS [RD-084], in the assay with PCT [1], the “activity … 3 min” value turned out to be 2497 and the “activity … 6 min” value was found to be 2394.

With IEGYRLFDRKS [RD-092], in the assay with PCT [1], the “activity … 3 min” value is 4905 and the “activity … 6 min” value is 4539.

VDGWRLHEKIS [RA141]: in the assay on PCT [2], the Signal-to-noise ratio is listed as 65.1. Also, the “PCT+” value with PCT [2] is given as 30623. The same sequence yielded a PCT- with PCT [2] of 463. Besides, the luminescence value in the assay on PCT [3] is recorded as 5414; in the assay on PCT [4] (PCT 0, background, normalized), 5000; with PCT [4] (setting [5]), 8685; in the assay on PCT [4] (setting [6]), 42762; in the assay on PCT [4] (setting [7]) it was 333241; in the assay with PCT [4] (setting [8]) it was 1399433. In addition, the “Signal-to-noise ratio at 1000 pg/ml” value in the assay on PCT [4] was found to be 8.6. For the same sequence, the “signal-to-noise ratios in luciferase dual-antibody complementary activation for PCT detection” value (shortened to “signal-to-noise ratios”) in the assay on PCT [4] is given as “higher signal-to-noise ratios”.

As to VEGYHLFDRKS [RD-103], in the assay with PCT [1], the “activity … 3 min” value was determined as 211 and the “activity … 6 min” value was found to be 204.

Regarding VEGYRLFKREL [RB152], in the assay with PCT [2], the Signal-to-noise ratio amounted to 40, the “PCT+” value is listed as 37150 and the PCT- came out at 906.

For the sequence VEGYRLFNEKS [RB195], in the assay on PCT [2], the Signal-to-noise ratio is listed as 30.8, the “PCT+” value came out at 41519 and the PCT- came out at 1307.

For VEGYRLFNKEW [RB284], in the assay with PCT [2], the Signal-to-noise ratio is listed as 12.2. The “PCT+” value in the assay on PCT [2] amounted to 3993. In addition, the PCT- in the assay with PCT [2] is listed as 302. Besides, the luminescence value is 5288 in the assay on PCT [3]; 5000 in the assay with PCT [4] (PCT 0, background, normalized); 7039 with PCT [4] (setting [5]); 24677 in the assay on PCT [4] (setting [6]); 187742 in the assay on PCT [4] (setting [7]); 861878 with PCT [4] (setting [8]). Moreover, the “Signal-to-noise ratio at 1000 pg/ml” value with PCT [4] came to 4.9. The “signal-to-noise ratios” value with PCT [4] is reported as “higher signal-to-noise ratios”.

As for VEGYRLFNKKS [RB054], in the assay with PCT [2], the Signal-to-noise ratio is 25.7, the “PCT+” value worked out at 92160 and the PCT- turned out to be 3449.

As for VEGYRLFNRKS [RB075], in the assay with PCT [2], the Signal-to-noise ratio was 27.1, the “PCT+” value stood at 76733 and the PCT- stood at 2735.

VEGYRLFNRKS [RB252]: in the assay on PCT [2], the Signal-to-noise ratio is recorded as 20.3, the “PCT+” value was determined as 70963 and the PCT- is reported as 3324.

VEGYRLFNRKW [RB223]: in the assay with PCT [2], the Signal-to-noise ratio stood at 34.7, the “PCT+” value is reported as 39231 and the PCT- stood at 1099.

With VEGYRLFNRVG [RB122], in the assay on PCT [2], the Signal-to-noise ratio is given as 20.2, the “PCT+” value is given as 55355 and the PCT- is on record as 2605.

In the case of VEGYRLFNRVS [RB027], in the assay on PCT [2], the Signal-to-noise ratio stood at 22.6, the “PCT+” value is 101765 and the PCT- was determined as 4316.

Regarding VEGYRLHEKIS [RA128], in the assay on PCT [2], the Signal-to-noise ratio is recorded as 45.2, the “PCT+” value is 17891 and the PCT- was 387.

Take VEPYKLFDRKS [RD-098]: in the assay with PCT [1], the “activity … 3 min” value is listed as 214 and the “activity … 6 min” value came out at 49.

Regarding VEPYKLFDRKS [RD-104], in the assay with PCT [1], the “activity … 3 min” value was found to be 215 and the “activity … 6 min” value is 222.

Turning to VSGWRIHEKIS [RA120], the Signal-to-noise ratio in the assay with PCT [2] came out at 36.9. Moreover, the “PCT+” value in the assay with PCT [2] was 81063. This sequence also came in with a PCT- in the assay with PCT [2] of 2139. Also, the luminescence value in the assay with PCT [3] is on record as 5257; in the assay with PCT [4] (PCT 0, background, normalized) it was 5000; in the assay on PCT [4] (setting [5]) it was 13450; in the assay on PCT [4] (setting [6]) it was 90072; in the assay with PCT [4] (setting [7]), 694625; in the assay on PCT [4] (setting [8]), 1999707. Also, in the assay on PCT [4], the “Signal-to-noise ratio at 1000 pg/ml” value is 18.0. Besides, the “signal-to-noise ratios” value with PCT [4] is listed as “higher signal-to-noise ratios”.
